Source: the NIST ThermoML archive (doi:10.1016/j.jct.2009.05.006)

Columns and labels:
[1] = xn = mol fraction of the nth substance listed; conditions: 298.15 K, 101 kPa, Liquid, Vibrating tube method
[2] = excess molar enthalpy (molar enthalpy of mixing); xn = mol fraction of the nth substance listed; conditions: 298.15 K, 101 kPa, Liquid, Calvet calorimetry

CCCCOC(=O)CCC [butyl butanoate] + BrCCCCCCBr
Conditions	excess molar enthalpy [kJ/mol]	mass density [kg/m3]
[1], x1 = 0.0615	–	1551.3
[1], x1 = 0.114	–	1509.95
[1], x1 = 0.1733	–	1463.7
[1], x1 = 0.2207	–	1427.05
[1], x1 = 0.2782	–	1383.1
[1], x1 = 0.3299	–	1343.86
[1], x1 = 0.3955	–	1294.64
[1], x1 = 0.4505	–	1253.75
[1], x1 = 0.5089	–	1210.69
[1], x1 = 0.5674	–	1168
[1], x1 = 0.6293	–	1123.3
[1], x1 = 0.68	–	1087.08
[1], x1 = 0.7477	–	1039.01
[1], x1 = 0.8082	–	996.64
[1], x1 = 0.8735	–	951.23
[1], x1 = 0.9358	–	908.5
[2], x1 = 0.0751	0.021	–
[2], x1 = 0.1669	0.029	–
[2], x1 = 0.2609	0.028	–
[2], x1 = 0.3471	0.019	–
[2], x1 = 0.418	0.002	–
[2], x1 = 0.4834	-0.017	–
[2], x1 = 0.5223	-0.033	–
[2], x1 = 0.5361	-0.036	–
[2], x1 = 0.5892	-0.044	–
[2], x1 = 0.6544	-0.048	–
[2], x1 = 0.7475	-0.048	–
[2], x1 = 0.8287	-0.04	–
[2], x1 = 0.9253	-0.021	–

BrCCCCCCBr [1,6-dibromohexane] + CCCCOC=O
Conditions	excess molar enthalpy [kJ/mol]	mass density [kg/m3]
[1], x2 = 0.0793	–	1558.23
[1], x2 = 0.1555	–	1514.85
[1], x2 = 0.2238	–	1474.51
[1], x2 = 0.2952	–	1430.8
[1], x2 = 0.3567	–	1391.77
[1], x2 = 0.4201	–	1350.14
[1], x2 = 0.4813	–	1308.59
[1], x2 = 0.5983	–	1224.92
[1], x2 = 0.6603	–	1178.22
[1], x2 = 0.7628	–	1097.17
[1], x2 = 0.8097	–	1058.36
[1], x2 = 0.854	–	1020.74
[1], x2 = 0.9078	–	973.55
[2], x2 = 0.0858	0.101	–
[2], x2 = 0.1844	0.173	–
[2], x2 = 0.2879	0.237	–
[2], x2 = 0.3755	0.274	–
[2], x2 = 0.4521	0.287	–
[2], x2 = 0.5188	0.282	–
[2], x2 = 0.6009	0.266	–
[2], x2 = 0.6581	0.244	–
[2], x2 = 0.7307	0.208	–
[2], x2 = 0.8078	0.157	–
[2], x2 = 0.8827	0.103	–
[2], x2 = 0.9487	0.056	–

CCCCOC(=O)CCC [butyl butanoate] + BrCCCCBr
Conditions	excess molar enthalpy [kJ/mol]	mass density [kg/m3]
[1], x1 = 0.0459	–	1757.74
[1], x1 = 0.1377	–	1643.47
[1], x1 = 0.1788	–	1594.83
[1], x1 = 0.2814	–	1479.86
[1], x1 = 0.3346	–	1423.4
[1], x1 = 0.3891	–	1367.86
[1], x1 = 0.5003	–	1260.78
[1], x1 = 0.5704	–	1197.33
[1], x1 = 0.6285	–	1146.9
[1], x1 = 0.7046	–	1083.68
[1], x1 = 0.7684	–	1032.96
[1], x1 = 0.8513	–	970.06
[1], x1 = 0.9156	–	923.4
[2], x1 = 0.0526	0.027	–
[2], x1 = 0.1195	0.049	–
[2], x1 = 0.1947	0.058	–
[2], x1 = 0.2716	0.049	–
[2], x1 = 0.3471	0.023	–
[2], x1 = 0.4134	-0.011	–
[2], x1 = 0.471	-0.049	–
[2], x1 = 0.5005	-0.065	–
[2], x1 = 0.579	-0.086	–
[2], x1 = 0.6761	-0.093	–
[2], x1 = 0.7901	-0.082	–
[2], x1 = 0.9017	-0.051	–

CCCCOC(=O)CCC [butyl butanoate] + BrCCCCCBr
Conditions	excess molar enthalpy [kJ/mol]	mass density [kg/m3]
[1], x1 = 0.0517	–	1642.59
[1], x1 = 0.1033	–	1591.9
[1], x1 = 0.1521	–	1545.03
[1], x1 = 0.2029	–	1497.33
[1], x1 = 0.2545	–	1449.85
[1], x1 = 0.3101	–	1399.96
[1], x1 = 0.3663	–	1350.58
[1], x1 = 0.4214	–	1303.32
[1], x1 = 0.478	–	1255.87
[1], x1 = 0.6053	–	1153.05
[1], x1 = 0.6591	–	1111.13
[1], x1 = 0.7254	–	1060.71
[1], x1 = 0.7885	–	1013.92
[1], x1 = 0.8577	–	963.85
[1], x1 = 0.9262	–	915.51
[2], x1 = 0.0642	0.027	–
[2], x1 = 0.1447	0.045	–
[2], x1 = 0.2305	0.05	–
[2], x1 = 0.3193	0.04	–
[2], x1 = 0.3711	0.026	–
[2], x1 = 0.3957	0.018	–
[2], x1 = 0.4159	0.004	–
[2], x1 = 0.4621	-0.015	–
[2], x1 = 0.4668	-0.02	–
[2], x1 = 0.5278	-0.039	–
[2], x1 = 0.6041	-0.048	–
[2], x1 = 0.6965	-0.054	–
[2], x1 = 0.806	-0.048	–
[2], x1 = 0.9138	-0.029	–

BrCCCBr [1,3-dibromopropane] + CCCCOC(=O)CC
[2]
Conditions	excess molar enthalpy [kJ/mol]
x2 = 0.045	0.032
x2 = 0.1122	0.052
x2 = 0.1829	0.054
x2 = 0.2541	0.038
x2 = 0.3191	0.009
x2 = 0.3797	-0.034
x2 = 0.4331	-0.063
x2 = 0.4438	-0.071
x2 = 0.5107	-0.096
x2 = 0.5886	-0.109
x2 = 0.6793	-0.11
x2 = 0.7807	-0.092
x2 = 0.8921	-0.055
